# Measured values reported in patent US6630343B1, “Hepatitis C virus culture system” (priority 1999, dated 2003).
# Starred links: 1 amine or outer side, 2 acyl side, 3 side chain; linkers in the order of their positions; H or OH if unused. Positions of bridges follow the written chain, without caps; N, C: chain ends. Non-standard residues stand in square brackets, D forms with d. Residues, ends and D or L forms follow the SMILES beside them. Chains are numbered I, II in the order given. Actinocin(9to1) = Cc1c2oc3c(C)ccc(C(=O)[*:1])c3nc-2c(C(=O)[*:2])c(N)c1=O; NMeV = CN[C@H](C(=O)O)C(C)C; Sar = CNCC(=O)O
# Tests used:
# [1] = test system: HCV RNA; test: [3H] uridine labeling of RNA in the presence of dactinomycin: HCV-RNA replication; type: cell-based, hepatitis C virus; conditions: 4 μg/ml dactinomycin, 16 hrs, clone 9-13
# Protocol: (§1) To confirm this assumption, cells were incubated with [^3H] uridine in the presence of dactinomycin, the radioactively labeled RNAs were extracted, separated by means of denaturing agarose gel electrophoresis and analyzed with the aid of a common Bio-Imager using a [^3H]-sensitive screen. For this purpose approx. 5×10^5 cells of the clones 9-13 and 8-1 were incubated at a time with 100 μCi [^3H] uridine for 16 hrs. in the absence (−) or presence (+) of 4 μg/ml of dactinomycin (Dact). Following this labeling reaction the total RNA was prepared and analyzed by means of formaldehyde-agarose gel electrophoresis. Only 1/10 of the total RNA is illustrated in the first two lanes. The radioactively labeled RNA was visualized using a BAS-2500 Bio-Imager (Fuji).
# [2] = test system: Huh 7 cell clones 9-13 and 8-1; test: [3H] uridine labeling of RNA in the presence of dactinomycin: cellular RNA synthesis; type: cell-based, human; conditions: 4 μg/ml dactinomycin, 16 hrs
# Protocol: as §1
compound,measurement,setting,value
"Cc1c2oc3c(C)ccc(C(=O)N[C@@H]4C(=O)N[C@H](C(C)C)C(=O)N5CCC[C@H]5C(=O)N(C)CC(=O)N(C)[C@@H](C(C)C)C(=O)O[C@@H]4C)c3nc-2c(C(=O)N[C@@H]2C(=O)N[C@H](C(C)C)C(=O)N3CCC[C@H]3C(=O)N(C)CC(=O)N(C)[C@@H](C(C)C)C(=O)O[C@@H]2C)c(N)c1=O [dactinomycin] (I: T[dV]P[Sar][NMeV] / II: T[dV]P[Sar][NMeV]; ester I:1-I:C, II:1-II:C; linker I:N-II:N via Actinocin(9to1))",influence on the replication of the HCV RNA,[1],no influence
same,synthesis of cellular RNA,[2],inhibited
